Measurements as given in article PMC12058161, “The plant matrix of Artemisia annua L. for the treatment of malaria: Pharmacodynamic and pharmacokinetic studies” (PLOS One, 2025).
Where “and” joins values, the source holds several entries; their conditions need not be identical. Equal entries are not always repeated.

Key:
[1] = target: T1, P-glycoprotein (P-gp) (Homo sapiens, UniProt P08183); test: Rhodamine 123 (P-gp substrate) transport across drug-treated Caco-2 cell monolayers; type: cell-based; conditions: co-incubated with R123, 10 μM, Caco-2 monolayer, Fig 6
T1 construct: The transport of R123 in normal Caco-2 cell monolayers or drug-treated Caco-2 cell monolayers was further studied; host or cells: Caco-2
T1 sequence (P08183 whole entry): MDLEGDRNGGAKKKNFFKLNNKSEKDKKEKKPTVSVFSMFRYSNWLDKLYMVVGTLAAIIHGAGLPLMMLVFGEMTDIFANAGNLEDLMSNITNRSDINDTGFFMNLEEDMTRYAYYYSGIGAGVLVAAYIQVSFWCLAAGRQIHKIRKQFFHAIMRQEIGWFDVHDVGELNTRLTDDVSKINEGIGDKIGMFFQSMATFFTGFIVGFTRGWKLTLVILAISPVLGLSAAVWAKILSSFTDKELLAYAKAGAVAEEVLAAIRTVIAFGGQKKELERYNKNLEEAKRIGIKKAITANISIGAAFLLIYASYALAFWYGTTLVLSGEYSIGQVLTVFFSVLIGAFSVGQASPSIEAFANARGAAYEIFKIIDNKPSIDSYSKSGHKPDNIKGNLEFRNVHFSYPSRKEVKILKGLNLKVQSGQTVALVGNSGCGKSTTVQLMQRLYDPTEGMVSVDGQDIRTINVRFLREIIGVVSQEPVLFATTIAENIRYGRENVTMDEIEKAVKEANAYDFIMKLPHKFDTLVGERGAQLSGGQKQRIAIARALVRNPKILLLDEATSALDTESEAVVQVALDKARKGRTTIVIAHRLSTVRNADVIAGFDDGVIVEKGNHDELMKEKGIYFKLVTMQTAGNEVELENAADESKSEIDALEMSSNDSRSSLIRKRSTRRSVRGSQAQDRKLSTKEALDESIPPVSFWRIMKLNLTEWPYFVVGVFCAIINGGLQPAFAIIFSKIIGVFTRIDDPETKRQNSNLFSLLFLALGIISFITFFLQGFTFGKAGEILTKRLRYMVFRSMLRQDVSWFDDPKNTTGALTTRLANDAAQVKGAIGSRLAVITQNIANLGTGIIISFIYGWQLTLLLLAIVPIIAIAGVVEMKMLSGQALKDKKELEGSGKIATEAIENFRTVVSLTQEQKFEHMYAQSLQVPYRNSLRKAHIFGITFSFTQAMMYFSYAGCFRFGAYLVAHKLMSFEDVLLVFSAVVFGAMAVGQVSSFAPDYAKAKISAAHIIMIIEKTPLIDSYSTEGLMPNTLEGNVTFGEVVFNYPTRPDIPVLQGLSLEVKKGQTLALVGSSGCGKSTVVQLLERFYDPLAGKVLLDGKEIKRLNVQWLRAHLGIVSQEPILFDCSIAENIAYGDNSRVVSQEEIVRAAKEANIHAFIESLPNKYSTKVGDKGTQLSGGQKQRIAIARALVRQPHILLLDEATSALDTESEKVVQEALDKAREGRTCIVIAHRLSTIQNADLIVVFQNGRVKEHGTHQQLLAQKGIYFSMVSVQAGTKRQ
Source text: (§1) The human epithelial cell line Caco-2 serves as a widely recognized model for the intestinal epithelial barrier, frequently utilized in the assessment of drug absorption and transport mechanisms. In this study, we evaluated drug absorption and distribution in vitro with the help of the Caco-2 cell model. Caco-2 cells were purchased from the Chinese Academy of Medical Sciences (Beijing, China, Resource No. 3111C0001CCC000100). The cells were resuscitated and inserted into culture flasks. Caco-2 cells were passaged with DMEM high glucose medium containing 10% (V/V) FBS, 1% (V/V) non-essential amino acid solution and 100 U/mL penicillin-streptomycin double antibiotic solution, and cultured at 37°C in a 5% CO2 incubator. […] The integrity of the cell monolayer was checked by measuring the transmembrane electrical resistance (TEER) of the monolayer cells with a Millicell-ERS electrode (Millipore Corp., Billerica, MA, USA). Caco-2 cells were used for transport experiments 17–21 days after inoculation. Besides, only monolayers with TEER values above 400 Ω/cm^2 were used in the study.
The transport of R123 in normal Caco-2 cell monolayers or drug-treated Caco-2 cell monolayers was further studied. […] The transport buffer containing 5 μM of R123 was added on either the AP or the BL side of the inserts, as described above. […] The concentrations of R123 were immediately analyzed by SpectraMax iD3. The excitation wavelength was set at 485 nm, and the emission wavelength at 535 nm. Papp values across the cell monolayers were calculated according to the equation: Papp = dQ/dt × 1/(A × C0), where dQ/dt represents the rate of drug transport. […] The efflux ratio was calculated using the Papp (BL-AP) to Papp (AP-BL) ratio.

[2] = tested on: Plasmodium berghei (P. berghei); test: Peters' four-day inhibition method, P. berghei murine malaria model; type: in vivo, ICR mice; conditions: individual mice
Protocol: In vivo evaluation of antimalarial activity was performed using the classical Peters’ four-day inhibition method. A murine malaria model was constructed by intraperitoneal injection of 5.00 × 10^7 Plasmodium yoelii (P. yoelii)- or Plasmodium berghei (P. berghei)-infected erythrocytes. […] Mice were gavaged once 4 hours after infection with medicated soybean oil or the test drug (gavage standard was 0.20 mL/10 g), and the drug was administered orally for 4 consecutive days. Four hours after the last dose, blood was collected from the tail tip of the mice to make a thin blood smear. The smear was air-dried, fixed in methanol, stained with Giemsa for 30 minutes, then rinsed with distilled water, air-dried at room temperature, and visualized for malaria infection under a microscope (OLYMPUS BX43) at 100x oil immersion. The inhibition ratio (%) for each group was calculated using the following equations:
Inhibitionratio(%)=(infectionratiocontrolgroup−infectionratiotreatmentgroup)/infectionratiocontrolgroup×100

[3] = Bidirectional transport of ART across Caco-2 cell monolayers (LC-MS/MS); type: in vitro ADME, human; conditions: human, Caco-2 monolayer, n = 3
Source text: as §1, with “17-21” for “17–21”, “study. […] To prepare drug-treated Caco-2 cell monolayers, Caco-2 cells cultured in Transwell® inserts were aseptically treated on day 21 with 10 μM of […] and nACTs. […] The excitation wavelength was set at 485 nm, and the emission wavelength at 535 nm. […] The efflux ratio was calculated using the Papp (BL-AP) to Papp (AP-BL) ratio. […] The solvent gradient was 65%B-95%B for 0-5 min; 95%B for 5-6 min; and 35%B for 6-9 min.” for “study.”

[4] = tested on: Caco-2 cell monolayers; test: as above; type: in vitro ADME, human; conditions: for transhipment of ART, AP-BL / transhipment of ART, Transepithelial transport in BL-to-AP: single replicate; for ART concentration per group, summary block: summary used for cumulative amount
Source text: as §1, with “17-21” for “17–21”, “study. […] To prepare drug-treated Caco-2 cell monolayers, Caco-2 cells cultured in Transwell® inserts were aseptically treated on day 21 with 10 μM of […] and nACTs. […] The excitation wavelength was set at 485 nm, and the emission wavelength at 535 nm. […] The efflux ratio was calculated using the Papp (BL-AP) to Papp (AP-BL) ratio. […] The solvent gradient was 65%B-95%B for 0-5 min; 95%B for 5-6 min; and 35%B for 6-9 min.” for “study.”

[5] = Pharmacokinetic study in rats after oral administration (UHPLC-ESI-MS/MS of plasma); conditions: for half-life: male, Sprague Dawley, rat, in vivo, po
Protocol: Blood samples were centrifuged at 3500 rpm for 5 min at 4°C. All plasma samples were then stored at -80°C until analysis.
All samples were stored in a refrigerator at -80°C and thawed at room temperature before processing. A 50 μL aliquot of plasma was added with 5 μL of the standard solution (or acetonitrile) and 100 μL of internal standard solution in turn, vortexed and mixed, then sonicated for 3 min, centrifuged at 14000 rpm for 10 min at low temperature. The supernatant was transferred to an autosampler vial and analyzed by UHPLC-ESI-MS/MS.
The mobile phase consisted of 0.1% formic acid solution (A) and acetonitrile (B).
The ESI ionization source was used and detected in MRM mode.
All data were presented as mean ± SD. Pharmacokinetic parameters including half-life (t1/2), maximum plasma time (Tmax) and concentration (Cmax), area under concentration-time curve (AUC0-t and AUC0-∞), clearance (CL), steady-state volume of distribution (Vz), and mean residence time (MRT) were analyzed by non-compartmental method using DAS Version 2.0 (Chinese Pharmacological Society, Beijing, China). […] The data were analyzed by Student’s t-test for two groups and one-way analysis of variance for multiple groups; p < 0.05 was considered statistically significant.

[6] = Caco-2, ART given as nACTs equivalent to 10 μM ART
[7] = sample code A: apical(AP), 30 min
[8] = sample code A: apical(AP), 60 min
[9] = sample code A: apical(AP), 90 min
[10] = sample code A: apical(AP), 120 min
[11] = sample code A: apical(AP), 150 min
[12] = sample code A: apical(AP), 180 min
[13] = sample code B: basolateral (BL), 30 min
[14] = sample code B: basolateral (BL), 60 min
[15] = sample code B: basolateral (BL), 90 min
[16] = sample code B: basolateral (BL), 120 min
[17] = sample code B: basolateral (BL), 150 min
[18] = sample code B: basolateral (BL), 180 min

## C[C@@H]1CC[C@H]2[C@@H](C)C(=O)O[C@@H]3O[C@@]4(C)CC[C@@H]1[C@]32O4 [DEART, Deoxyartemisinin]
[1]
  reduction of R123 transport from the BL side to the AP side: 22.40%

## C[C@@H]1CC[C@H]2[C@@H](C)C(=O)O[C@@H]3O[C@@]4(C)CC[C@@H]1[C@]32OO4 [ART, Artemisinin, reference compound]
[2]; 5.68 mg/kg
  parasitemia%: 73.4143% and 71.7174% and 72.6074% and 72.7168% and 72.6183%
[2]; 11.368 mg/kg
  parasitemia%: 41.4175% and 45.3752% and 36.8615% and 43.5062% and 35.724%
[2]; 22.736 mg/kg
  parasitemia%: 2.697% and 7.338% and 4.202% and 2.082% and 5.536%
[3]; Caco-2, 10 μM ART alone (PU)
  Papp A→B at 180 min, 10 μM: 7.49 ± 0.35 ×10⁻⁶ cm/s
  Papp B→A at 180 min, 10 μM: 82.3 ± 2.1 ×10⁻⁶ cm/s
[3]; [6]
  Papp A→B at 180 min, 10 μM: 8.42 ± 0.37 ×10⁻⁶ cm/s
  Papp B→A at 180 min, 10 μM: 52.7 ± 2.3 ×10⁻⁶ cm/s
[4]; 30 min
  transhipment of ART, AP-BL: 3.69 nmol and 3.84 nmol and 3.71 nmol
  transhipment of ART, Transepithelial transport in BL-to-AP: 28.49 nmol and 28.67 nmol and 28.4 nmol
[4]; 60 min
  transhipment of ART, AP-BL: 5.02 nmol and 5.27 nmol and 5.14 nmol
  transhipment of ART, Transepithelial transport in BL-to-AP: 55.39 nmol and 55.5 nmol and 55.82 nmol
[4]; 90 min
  transhipment of ART, AP-BL: 7.24 nmol and 7.11 nmol and 7.33 nmol
  transhipment of ART, Transepithelial transport in BL-to-AP: 69.96 nmol and 69.87 nmol and 69.99 nmol
[4]; 120 min
  transhipment of ART, AP-BL: 8.97 nmol and 9.16 nmol and 9.09 nmol
  transhipment of ART, Transepithelial transport in BL-to-AP: 90.64 nmol and 90.48 nmol and 90.67 nmol
[4]; 150 min
  transhipment of ART, AP-BL: 10.67 nmol and 10.60 nmol and 10.62 nmol
  transhipment of ART, Transepithelial transport in BL-to-AP: 106.51 nmol and 106.61 nmol and 106.74 nmol
[4]; 180 min
  transhipment of ART, AP-BL: 11.97 nmol (2×) and 11.99 nmol
  transhipment of ART, Transepithelial transport in BL-to-AP: 124.37 nmol and 124.58 nmol and 124.56 nmol
[4]; [7]
  ART original concentration, single replicate: 786.91 ng/mL and 1910.44 ng/mL and 2313.90 ng/mL
  ART original concentration, column mean: 2112.17 ng/mL
  ART concentration per group, summary block: 2112.17 ng/mL
[4]; [8]
  ART original concentration, single replicate: 2149.07 ng/mL and 2049.02 ng/mL and 3232.78 ng/mL
  ART original concentration, column mean: 2640.90 ng/mL
  ART concentration per group, summary block: 2476.96 ng/mL
[4]; [9]
  ART original concentration, single replicate: 2915.94 ng/mL and 2813.25 ng/mL and 3472.39 ng/mL
  ART original concentration, column mean: 3142.82 ng/mL
  ART concentration per group, summary block: 3067.20 ng/mL
[4]; [10]
  ART original concentration, single replicate: 3594.17 ng/mL and 3318.58 ng/mL and 3006.12 ng/mL
  ART original concentration, column mean: 3162.35 ng/mL
  ART concentration per group, summary block: 3306.29 ng/mL
[4]; [11]
  ART original concentration, single replicate: 3213.69 ng/mL and 2917.70 ng/mL and 3363.12 ng/mL
  ART original concentration, column mean: 3140.41 ng/mL
  ART concentration per group, summary block: 3164.84 ng/mL
[4]; [12]
  ART original concentration, single replicate: 2674.58 ng/mL and 2920.77 ng/mL and 2532.18 ng/mL
  ART original concentration, column mean: 2726.47 ng/mL
  ART concentration per group, summary block: 2709.18 ng/mL
[4]; [13]
  ART original concentration, single replicate: 5260.58 ng/mL and 5169.96 ng/mL and 5652.08 ng/mL
  ART concentration per group, summary block: 5360.87 ng/mL
[4]; [14]
  ART original concentration, single replicate: 8719.34 ng/mL and 7267.89 ng/mL and 12129.77 ng/mL
  ART original concentration, column mean: 9698.83 ng/mL
  ART concentration per group, summary block: 9372.33 ng/mL
[4]; [15]
  ART original concentration, single replicate: 9503.98 ng/mL and 6910.68 ng/mL and 13549.62 ng/mL
  ART original concentration, column mean: 10230.15 ng/mL
  ART concentration per group, summary block: 9988.09 ng/mL
[4]; [16]
  ART original concentration, single replicate: 10562.24 ng/mL and 7482.04 ng/mL and 15676.89 ng/mL
  ART original concentration, column mean: 11579.46 ng/mL
  ART concentration per group, summary block: 11240.39 ng/mL
[4]; [17]
  ART original concentration, single replicate: 9970.47 ng/mL and 7130.75 ng/mL and 15441.45 ng/mL
  ART original concentration, column mean: 11286.10 ng/mL
  ART concentration per group, summary block: 10847.56 ng/mL
[4]; [18]
  ART original concentration, single replicate: 7047.15 ng/mL and 14960.70 ng/mL and 8594.06 ng/mL
  ART original concentration, column mean: 11777.38 ng/mL
  ART concentration per group, summary block: 10200.64 ng/mL
[5]; 100 mg/kg, t1/2, rat plasma, ART after gavage of pure ART (PU) 100 mg/kg, n = 6
  half-life: 1.1 ± 0.335 h
[5]; 100 mg/kg, t1/2z, pure artemisinin, rat plasma, DAS 2.0, Mean of 6 rats
  half-life: 1.1 h
[5]; 352 mg/kg, t1/2, rat plasma, component after gavage of nACTs 352 mg/kg, n = 6
  half-life: 1.76 ± 0.938 h
[5]; pure artemisinin, rat plasma, DAS 2.0, individual rats No1-No6
  Cz(尾点回归值): 14.237 mg/L
